Data reported in EP2161259A1, “4-Haloalkyl substituted Diaminopyrimidine” (Bayer CropScience AG, priority 2008, dated 2010).

Key:
Puccinia recondita = assay: Puccinia test (wheat) / protective; type: in vivo
Fumonisin FB1 = assay: Production of fumonisin FB1 by Fusarium proliferatum (microtiter plate, HPLC-MS/MS); type: cell-based; conditions: 144 h, read-out: pI50 FB1
Fusarium proliferatum = assay: microbe, parasite or virus in culture; type: cell-based; conditions: 144 h, read-out: pI50 Wachstum
Venturia inaequalis = type: in vivo; conditions: 240 h, 100 ppm
Text: Lösungsmittel: 24,5 Gewichtsteile Aceton 24,5 Gewichtsteile Dimethylacetamid Emulgator : 1 Gewichtsteil Alkyl-Aryl-Polyglykolether Zur […] und Emulgator und verdünnt das Konzentrat mit Wasser auf die gewünschte Konzentration. Zur Prüfung auf protektive Wirksamkeit werden junge Pflanzen mit der Wirkstoffzubereitung in der angegebenen Aufwandmenge besprüht. Nach Antrocknen des Spritzbelages werden die Pflanzen mit einer wäßrigen Konidiensuspension des […] Venturia inaequalis inokuliert und verbleiben dann 1 Tag bei ca. 20°C und 100% relativer Luftfeuchtigkeit in einer Inkubations-kabine. Die Pflanzen werden dann im Gewächshaus bei ca. 21°C und einer relativen Luftfeuchtigkeit von ca. 90% aufgestellt. 10 Tage nach der Inokulation erfolgt die Auswertung. Dabei bedeutet 0% ein Wirkungsgrad, der demjenigen der Kontrolle entspricht, während ein Wirkungsgrad von 100% bedeutet, daß kein Befall beobachtet wird.

[1] = tested on: Fusarium nivale (var.majus); type: in vivo; conditions: 120 h, 1000 ppm
Text: […]-Dimethylacetamid Emulgator: 1 Gewichtsteil Alkylarylpolyglykolether Zur […] und Emulgator und verdünnt das Konzentrat mit Wasser auf die gewünschte Konzentration. Zur Prüfung auf protektive Wirksamkeit besprüht man junge Pflanzen mit der Wirkstoffzubereitung in der angegebenen Aufwandmenge. Nach Antrocknen des Spritzbelages werden die Pflanzen mit Sporen mit einer Sporensuspension von Fusarium nivale (var.majus) besprüht. Die Pflanzen werden in einer Gewächshauskammer unter […] Inkubationshaube bei 10°C und 100 % relativer Luftfeuchtigkeit gestellt. 5 Tage nach der Inokulation erfolgt die Auswertung. Dabei bedeutet 0 % ein Wirkungsgrad, der demjenigen der Kontrolle entspricht, während ein Wirkungsgrad von 100 % bedeutet, dass kein Befall beobachtet wird.

Alternaria solani = assay: Alternaria test (tomato) / protective; type: in vivo
Botrytis cinerea = type: in vivo; conditions: 48 h, 250 ppm
Text: Lösungsmittel: 24,5 Gewichtsteile Aceton 24,5 Gewichtsteile Dimethylacetamid Emulgator : 1 Gewichtsteil Alkyl-Aryl-Polyglykolether Zur […] und Emulgator und verdünnt das Konzentrat mit Wasser auf die gewünschte Konzentration. Zur Prüfung auf protektive Wirksamkeit werden junge Pflanzen mit der Wirkstoffzubereitung in der angegebenen Aufwandmenge besprüht. Nach Antrocknen des Spritzbelages werden auf jedes Blatt 2 […] Botrytis cinerea […]. Die inokulierten Pflanzen werden in einer abgedunkelten Kammer bei ca. 20°C und 100% relativer Luftfeuchtigkeit aufgestellt. 2 Tage nach der Inokulation wird die Größe der Befallsflecken auf den Blä[…]. Dabei bedeutet 0% ein Wirkungsgrad, der demjenigen der Kontrolle entspricht, während ein Wirkungsgrad von 100% bedeutet, daß kein Befall beobachtet wird.

Pyricularia oryzae = type: in vivo; conditions: 250ppm active compound; rice, protective; evaluation 7 days after inoculation
Cochliobolus miyabeanus = assay: Cochliobolus test (rice) / protective; type: in vivo; conditions: 250ppm active compound, evaluation 4 days after inoculation
Gibberella zeae = conditions: in vivo
[2] = 500ppm active compound, wheat, protective, evaluation 7-9 days after inoculation

Row | Structure (SMILES) | chromatographic logP (physchem; pH 2.7) | Wirkungsgrad (Puccinia recondita; 500 ppm) [%] | other results
1 | O=Cc1cccc(Nc2ncc(Cl)c(NCC(F)F)n2)c1 [Verbindung 47] |  |  | Wirkungsgrad (Puccinia recondita; [2]): ≥ 70%; chromatographic logP (physchem; pH 7.8): 2.49
2 | COc1cccc(Nc2ncc(Cl)c(NCC(F)F)n2)c1 [Verbindung 39] | 1.96 |  | IC50 (Fumonisin FB1): 3.16 µM; IC50 (Fusarium proliferatum): 10 µM
3 | N#Cc1ccc(Nc2ncc(Cl)c(NCC(F)(F)F)n2)cc1 [Verbindung 8] | 2.77 |  | 
4 | CC(=O)c1ccc(Nc2ncc(Cl)c(NCC(F)(F)F)n2)cc1 [Verbindung 28] | 2.51 |  | 
5 | CN(C)C(=O)c1ccc(Nc2ncc(Cl)c(NCC(F)F)n2)cc1 [Verbindung 40] | 1.55 | ≥ 70 | 
6 | COc1cc(Nc2ncc(Cl)c(NCC(F)(F)F)n2)ccc1NC(C)=O [Verbindung 5] | 1.75 | ≥ 70 | 
7 | CC(=O)Nc1cccc(Nc2ncc(Cl)c(NCC(F)(F)F)n2)c1 [Verbindung 19] | 1.66 | ≥ 70 | 
8 | FC(F)(F)CNc1nc(Nc2ccccc2)ncc1Cl [Verbindung 3, 5-Chlor-N^2-phenyl-N^4-(2,2,2-trifluorethyl)pyrimidin-2,4-diamin] |  | ≥ 70 | Wirkungsgrad (Venturia inaequalis): ≥ 70%; Wirkungsgrad [1]: ≥ 70%; IC50 (Fumonisin FB1): 2 µM; IC50 (Fusarium proliferatum): 12.6 µM; chromatographic logP (physchem; pH 2.3): 2.56; chromatographic logP (physchem; pH 7.8): 3.09
9 | CC(C)(C)C(=O)Nc1cccc(Nc2ncc(Cl)c(NCC(F)(F)F)n2)c1 [Verbindung 21] | 2.51 | ≥ 70 | 
10 | CCN(C(C)=O)c1ccc(Nc2ncc(Cl)c(NCC(F)(F)F)n2)cc1 [Verbindung 15] | 2.13 | ≥ 70 | Wirkungsgrad (Alternaria solani; 168 h, 500 ppm): ≥ 70%
11 | CCOC(=O)Nc1cccc(Nc2ncc(Cl)c(NCC(F)(F)F)n2)c1 [Verbindung 33] | 2.36 |  | 
12 | FC(F)(F)CNc1nc(Nc2cccc(OC(F)(F)F)c2)ncc1Cl [Verbindung 9] | 3.72 |  | 
13 | CNC(=O)c1ccc(Nc2ncc(Cl)c(NCC(F)(F)F)n2)cc1 [Verbindung 22] | 1.66 |  | 
14 | COC(=O)Nc1cccc(Nc2ncc(Cl)c(NCC(F)(F)F)n2)c1 [Verbindung 35] | 2.06 | ≥ 70 | IC50 (Fumonisin FB1): 31.6 µM; IC50 (Fusarium proliferatum): 39.8 µM
15 | C=CCNC(=O)c1ccc(Nc2ncc(Cl)c(NCC(F)F)n2)cc1 [Verbindung 41] | 1.84 | ≥ 70 | 
16 | CCOC(=O)Nc1ccc(Nc2ncc(Cl)c(NCC(F)(F)F)n2)cc1 [Verbindung 32] | 2.11 |  | 
17 | N#Cc1cccc(Nc2ncc(Cl)c(NCC(F)(F)F)n2)c1 [Verbindung 4] | 2.67 |  | Wirkungsgrad (Alternaria solani; 168 h, 500 ppm): ≥ 70%
18 | O=C1NC(=O)C(c2ccc(Nc3ncc(Cl)c(NCC(F)(F)F)n3)cc2)N1 (stereo not shown) [Verbindung 30] | 1.47 |  | 
19 | CSc1ccc(Nc2ncc(Cl)c(NCC(F)(F)F)n2)cc1 [Verbindung 25] | 2.92 |  | 
20 | CS(=O)(=O)c1ccc(Nc2ncc(Cl)c(NCC(F)(F)F)n2)cc1 [Verbindung 10] | 2.21 |  | 
21 | O=c1[nH]c(Nc2ccccc2)ncc1Br [IX-1, 2-Anilino-5-brompyrimidin-4(3H)-on] |  |  | chromatographic logP (physchem; pH 2.3): 1.62
22 | CSc1cccc(Nc2ncc(Cl)c(NCC(F)(F)F)n2)c1 [Verbindung 24] | 3.04 | ≥ 70 | Wirkungsgrad [1]: ≥ 70%; IC50 (Fumonisin FB1): 31.6 µM; IC50 (Fusarium proliferatum): > 50.1 µM
23 | CC(=O)Nc1ccc(Nc2ncc(Cl)c(NCC(F)(F)F)n2)cc1 [Verbindung 13] | 1.54 | ≥ 70 | 
24 | O=Cc1cccc(Nc2ncc(Cl)c(NCC(F)(F)F)n2)c1 [Verbindung 46] |  |  | Wirkungsgrad (Alternaria solani; 500ppm active compound, tomato, protective, evaluation 7 days after inoculation): ≥ 70%; Wirkungsgrad (Puccinia recondita; [2]): ≥ 70%; chromatographic logP (physchem; pH 7.8): 2.67

Row | Structure (SMILES) | chromatographic logP (physchem; pH 2.7) | Wirkungsgrad (Puccinia recondita; 500 ppm) [%] | other results
25 | CC(=O)N(C)c1ccc(Nc2ncc(Cl)c(NCC(F)(F)F)n2)cc1 [Verbindung 16] | 1.92 | ≥ 70 | Wirkungsgrad (Alternaria solani; 168 h, 500 ppm): ≥ 70%
26 | COc1cccc(Nc2ncc(Cl)c(NCC(F)(F)F)n2)c1 [Verbindung 6] | 2.55 | ≥ 70 | IC50 (Fumonisin FB1): 1.58 µM; IC50 (Fusarium proliferatum): 3.16 µM
27 | CC(CC(F)(F)F)Nc1nc(Nc2ccccc2)ncc1Br (stereo not shown) [Verbindung 42, 5-Brom-N^2-phenyl-N^4-(4,4,4-trifluorbutan-2-yl)pyrimidin-2,4-diamin] | 2.4 |  | 
28 | CSc1ccc(Nc2ncc(Cl)c(NCC(F)(F)F)n2)cc1Cl [Verbindung 12] | 3.55 |  | 
29 | CNC(=O)c1cccc(Nc2ncc(Cl)c(NCC(F)(F)F)n2)c1 [Verbindung 23] | 1.66 | ≥ 70 | 
30 | N#CCc1cccc(Nc2ncc(Cl)c(NCC(F)F)n2)c1 [Verbindung 43] | 1.89 | ≥ 70 | Wirkungsgrad (Botrytis cinerea): ≥ 70%; Wirkungsgrad (Alternaria solani; 168 h, 500 ppm): ≥ 70%; IC50 (Fumonisin FB1): 1.26 µM; IC50 (Fusarium proliferatum): 6.31 µM; Wirkungsgrad (Pyricularia oryzae): ≥ 80%; Wirkungsgrad (Cochliobolus miyabeanus): ≥ 80%
31 | C=C(C)C(=O)Nc1cccc(Nc2ncc(Cl)c(NCC(F)(F)F)n2)c1 [Verbindung 20] | 2.16 |  | 
32 | FC(F)CNc1nc(Nc2ccccc2)ncc1Cl [Verbindung 1, 5-Chlor-N^4-(2,2-difluorethyl)-N^2-phenylpyrimidin-2,4-diamin] |  |  | Wirkungsgrad (Venturia inaequalis): ≥ 70%; Wirkungsgrad (Alternaria solani; 168 h, 500 ppm): ≥ 70%; Wirkungsgrad [1]: ≥ 70%; IC50 (Fumonisin FB1): 3.16 µM; IC50 (Fusarium proliferatum): 7.94 µM; chromatographic logP (physchem; pH 2.3): 1.89
33 | CC(=O)Nc1ccc(Nc2ncc(Cl)c(NCC(F)(F)F)n2)cc1Cl [Verbindung 14] | 2.04 |  | 
34 | Cc1cccc(Nc2ncc(Cl)c(NCC(F)F)n2)c1 [Verbindung 45] | 2.27 | ≥ 70 | IC50 (Fumonisin FB1): 1.58 µM; IC50 (Fusarium proliferatum): 5.01 µM
35 | O=C(Nc1ccc(Nc2ncc(Cl)c(NCC(F)(F)F)n2)cc1)C(F)(F)F [Verbindung 17] | 2.55 |  | 
36 | CC(Nc1nc(Nc2ccccc2)ncc1Cl)C(F)(F)F (stereo not shown) [Verbindung 2] |  |  | chromatographic logP (physchem; pH 2.3): 2.87
37 | Cc1cccc(Nc2ncc(Cl)c(NCC(F)(F)F)n2)c1 [Verbindung 44] | 2.88 |  | IC50 (Fumonisin FB1): 1.26 µM; IC50 (Fusarium proliferatum): 20 µM
38 | CC1(C(=O)Nc2ccc(Nc3ncc(Cl)c(NCC(F)(F)F)n3)cc2)CC1 [Verbindung 18] | 2.16 |  | 
39 | O=S(=O)(c1cccc(Nc2ncc(Cl)c(NCC(F)(F)F)n2)c1)N1CCCCC1 [Verbindung 26] | 2.58 | ≥ 70 | 
40 | CN(C)S(=O)(=O)c1ccc(Nc2ncc(Cl)c(NCC(F)(F)F)n2)cc1 [Verbindung 11] | 2.64 |  | 
41 | CN(C)C(=O)c1ccc(Nc2ncc(Cl)c(NCC(F)(F)F)n2)cc1 [Verbindung 48] | 1.93 |  | Wirkungsgrad (Alternaria solani; 168 h, 500 ppm): ≥ 70%
42 | COC(=O)Nc1ccc(Nc2ncc(Cl)c(NCC(F)(F)F)n2)cc1 [Verbindung 31] | 1.85 |  | 
43 | CC(=O)Nc1cc(Nc2ncc(Cl)c(NCC(F)(F)F)n2)ccc1C [Verbindung 38] | 1.61 | ≥ 70 | 
44 | CC(C)(C)C(=O)Cc1ccc(Nc2ncc(Cl)c(NCC(F)(F)F)n2)cc1 [Verbindung 27] | 3.17 |  | Wirkungsgrad (Alternaria solani; 168 h, 500 ppm): ≥ 70%
45 | CNC(=O)Oc1cccc(Nc2ncc(Cl)c(NCC(F)(F)F)n2)c1 [Verbindung 34] |  |  | IC50 (Fumonisin FB1): 10 µM; IC50 (Fusarium proliferatum): > 50.1 µM; Wirkungsgrad (Gibberella zeae): ≥ 80%
46 | CC(=O)c1cccc(Nc2ncc(Cl)c(NCC(F)(F)F)n2)c1 [Verbindung 29] | 2.39 | ≥ 70 | Wirkungsgrad [1]: ≥ 70%; IC50 (Fumonisin FB1): 10 µM; IC50 (Fusarium proliferatum): > 50.1 µM
47 | CC(C)(CF)C(=O)Nc1cccc(Nc2ncc(Cl)c(NCC(F)(F)F)n2)c1 [Verbindung 37] | 2.42 | ≥ 70 | 
48 | COc1ccc(Nc2ncc(Cl)c(NCC(F)(F)F)n2)cc1 [Verbindung 7] | 2.06 |  | 
